Source: patent publication EP3398599A1, “COMPOSITIONS AND METHODS FOR PROPHYLAXIS AND TREATMENT OF ADDICTIONS” (priority 2009, dated 2010)
Entries after “also recorded” stand apart in the source; their conditions may differ.

Key:
Type in all cases: in vivo
[1] = test system: msP rats; test: Voluntary ethanol intake, subchronic (7 days) treatment, alcohol available 24 hours/day; conditions: naltrexone […] IP alone or with pioglitazone 10.0 or 30.0 mg/kg OS, overall p<0.01
Protocol: At the beginning of the experiments, msP rats were allowed free choice between water and 10% (v/v) alcohol 24 h/day for at least 15 days. The fluids were offered in graduated drinking tubes equipped with metallic drinking spouts. The position (to the right or left) of alcohol and water drinking tubes was changed daily to avoid the development of side preference. […] Alcohol, water and food intakes were measured.
Before starting the treatment, rats were trained to gavage administration procedures for three days, during which they received vehicle (distilled water).
(§1) Alcohol, water and food intakes were monitored at 2, 8 and 24 hours. Fluids and food intakes were monitored for three additional days after the end of the drug treatment period.
as §1

[2] = test system: msP rats; test: Yohimbine-induced (stress-induced) reinstatement of alcohol seeking; conditions: naltrexone 0.25 and 1.0 mg/kg IP 1 hour before test
[3] = test system: msP rats; test: Cue-induced reinstatement of alcohol seeking; conditions: naltrexone, both doses (0.25 and 1.0 mg/kg) one hour before test; p<0.01
[4] = test system: human patients; test: Observational study of alcohol abuse in human patients (pioglitazone 30 mg/day or naltrexone 50 mg/day + psychotherapy); conditions: for CDT: mean value of blood tests
Description: Patients were instructed to record in a personal logbook the number of drinks per day and the time of the day drinks occurred. At the end of the study, the logbooks were returned to the clinical personnel who analyzed the data.
In addition, biochemical parameters to ascertain alcohol detoxification and to measure recovery of physiological functions (i.e., hepatic function) were monitored monthly. Hematological parameters measured included: mean corpuscular volume (MCV); gamma-GT; aspartate aminotransferase (AST); alanine aminotransferase (ALT); and carbohydrate-deficient transferring (CDT). MCV and CDT are biomarkers for ethanol consumption, and GGT, ALT and AST are biomarkers for hepatic functionality.
Data were analyzed by analysis of variance followed by Newman-Keuls post hoc tests when appropriate.

[5] = test system: Long Evans rats; test: Yohimbine-induced reinstatement of nicotine seeking; conditions: yohimbine 2.0 mg/kg/ml; p<0.001
Protocol: Stress and anxiety are major factors in resuming nicotine use in former abstinent users. […] Briefly, following acquisition of a stable baseline of IV nicotine self-administration (30µg/0.1ml/infusion), male Long Evans rats (n=8) were subjected to an extinction period of 5 days.
Reinstatement experiments and relative drug treatments were performed every third day. Between reinstatements, extinction baseline was re-established.

Row | Compound | voluntary ethanol intake [1] | yohimbine-induced reinstatement of alcohol seeking [2] | conditioned (cue-induced) reinstatement of alcohol-seeking [3] | Depression Scale M.A.D.R.S (mean score values) ([4]; T=0 (beginning of the treatment)) | Depression Scale M.A.D.R.S (mean score values) ([4]; T=1.1 (month 1, week 1)) | Depression Scale M.A.D.R.S (mean score values) ([4]; T=1.2 (month 1, week 2)) | effect on daily drinks, naltrexone vs pioglitazone ([4]; first two weeks of treatment, P<0.05) | CDT ([4]; T0) | CDT ([4]; T1= 4 weeks) | CDT ([4]; T2= 8 weeks) | decrease in MCV and CDT ([4]; naltrexone treated patients (NTX), two months) | all the five biomarkers (MCV, GGT, ALT, AST, CDT): difference from controls (psychotherapy alone) ([4]; post hoc tests, P<0.001) | anxiety score: difference from controls ([4]; post hoc tests, P<0.001) | obsessive compulsive score for alcohol (OCDS): decrease, difference from controls ([4]; post hoc tests, P<0.001) | depression score (MADRS): difference from controls ([4]; post hoc tests, P<0.001 for pioglitazone) | hepatic parameters (GGT, ALT, AST) ([4]; two months of treatment) | daily ethanol intake (number of daily drinks) ([4]; vs psychotherapy only) | number of abstinence days ([4]; vs psychotherapy only) | reinstatement of responding (nicotine seeking) compared to extinction [5]
1 | O=C1CC[C@@]2(O)[C@H]3Cc4ccc(O)c5c4[C@@]2(CCN3CC2CC2)[C@H]1O5 [naltrexone] | significantly reduced | did not significantly reduce the effect of yohimbine | significantly reduced reinstatement of ethanol seeking; also recorded: significantly reduced cue-induced reinstatement of alcohol-seeking | 19 | 16 | 18 | more effective than pioglitazone | 3.6 | 3.0 | 2.5 | to a lesser extent compared to the pioglitazone group | statistical difference | statistically significant difference | statistically significant difference | not naltrexone | ameliorated | significantly reduced daily ethanol intake | increased the number of abstinence days | 
2 | COC(=O)[C@@H]1[C@H]2C[C@H]3c4[nH]c5ccccc5c4CCN3C[C@@H]2CC[C@@H]1O [yohimbine] |  |  |  |  |  |  |  |  |  |  |  |  |  |  |  |  |  |  | significant reinstatement of responding
